Data as given in patent US10350203B2, “Multidrug infusion for pain control” (priority 2014, dated 2019).

Key:
[1] = system: pain due to severe spastic right hemiparesis post stroke; settings: for pain relief: human, in vivo, iv
[2] = intrathecal, combined with opioids, up to more than 30 mg/day; cited from earlier work
[3] = system: spinal tissue or meninges; settings: dog, in vivo, 1 mg/kg; cited from earlier work
pain = settings: in vivo; cited from earlier work
spinal cord = settings: in vivo; cited from earlier work
[4] = system: hyperalgesia and allodynia; settings: rat, in vivo; cited from earlier work
gliosis = settings: rat, in vivo; cited from earlier work

NCC(CC(=O)O)c1ccc(Cl)cc1 (stereo not shown) [Baclofen]
pain relief [1]: no relief

CCCCN1CCCCC1C(=O)Nc1c(C)cccc1C (stereo not shown) [bupivacaine]
bladder dysfunction or muscle weakness [2]: did not cause bladder dysfunction or muscle weakness

CNC1(c2ccccc2Cl)CCCCC1=O (stereo not shown) [ketamine]
histological alterations of spinal tissue or meninges [3]: no histological alterations | pain relief [1]: did not provide any relief | tolerability ([1]; intravenous infusions): well tolerated

C=CCN1CC[C@]23c4c5ccc(O)c4O[C@H]2C(=O)CC[C@@]3(O)[C@H]1C5 [naloxone]
effect on morphine analgesic effect (pain): dramatically enhanced | side effects (pain): without apparent side effects | signs of spinal cord toxicity (spinal cord): have not demonstrated signs of spinal cord toxicity | effect on antihyperalgesia and antiallodynia effects of morphine [4]: enhanced

O=C1CC[C@@]2(O)[C@H]3Cc4ccc(O)c5c4[C@@]2(CCN3CC2CC2)[C@H]1O5 [naltrexone]
gliosis (gliosis): attenuates gliosis
